Data on 1 substance can be found in paper PMC3390464 (Phytochemistry, 2012).

In the assay the target is Sigma 1 receptor. Kind of assay: competitive radioligand binding assay.

The Ki is the dissociation constant of the complex between target and ligand, obtained from inhibition or displacement. High values mean a looser hold on the target, low ones a stronger hold on the target. The substance “9,13-epoxy-6-hydroxylabdan-15,16-olide [compound 11]” returned an inhibitory constant (Ki) of 2900 nM.
